Test results from ChEMBL document CHEMBL4052801, “Design, synthesis and anticancer activity of N-(1-(4-(dibenzo[b,f][1,4]thiazepin-11-yl)piperazin-1-yl)-1-oxo-3-phenylpropan-2-yl derivatives” (Bioorg Med Chem Lett, 2017).

Key:
[1] = system: MDA-MB-231; assay: Cytotoxicity against human MDA-MB-231 cells after 24 hrs by MTT assay; assay type: functional, cell-based; conditions: MDA-MB-231, 24 h
[2] = system: K562; assay: Cytotoxicity against human K562 cells after 24 hrs by MTT assay; assay type: functional, cell-based; conditions: K562, 24 h
[3] = system: COLO 205; assay: Cytotoxicity against human COLO205 cells after 24 hrs by MTT assay; assay type: functional, cell-based; conditions: COLO 205, 24 h
[4] = target: T1, NAD-dependent protein deacetylase sirtuin-1 (Homo sapiens) (UniProt Q96EB6); assay: Inhibition of human Sirt1 at 10 uM using fluorophore-labelled peptide as substrate measured after 15 mins by fluorescence assay relative to control
T1 sequence (whole entry): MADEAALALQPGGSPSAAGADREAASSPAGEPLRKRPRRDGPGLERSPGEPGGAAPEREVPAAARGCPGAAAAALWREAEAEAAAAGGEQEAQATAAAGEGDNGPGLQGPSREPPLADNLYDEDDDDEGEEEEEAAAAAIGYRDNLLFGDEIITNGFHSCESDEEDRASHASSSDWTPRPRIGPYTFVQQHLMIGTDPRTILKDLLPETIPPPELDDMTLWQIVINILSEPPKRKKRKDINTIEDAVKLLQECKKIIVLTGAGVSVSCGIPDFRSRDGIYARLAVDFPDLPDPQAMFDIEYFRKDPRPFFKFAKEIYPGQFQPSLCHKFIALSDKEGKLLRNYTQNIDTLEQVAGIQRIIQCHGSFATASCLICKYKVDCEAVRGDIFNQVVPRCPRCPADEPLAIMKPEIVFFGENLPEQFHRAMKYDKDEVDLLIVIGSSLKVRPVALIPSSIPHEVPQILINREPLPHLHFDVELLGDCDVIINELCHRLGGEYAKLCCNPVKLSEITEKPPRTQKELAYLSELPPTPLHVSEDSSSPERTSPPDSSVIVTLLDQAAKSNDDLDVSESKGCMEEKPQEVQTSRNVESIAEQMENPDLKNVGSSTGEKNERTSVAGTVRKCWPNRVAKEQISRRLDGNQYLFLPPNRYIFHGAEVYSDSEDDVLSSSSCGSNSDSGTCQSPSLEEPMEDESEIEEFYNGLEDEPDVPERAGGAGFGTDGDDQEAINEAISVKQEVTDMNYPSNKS

Row | SMILES | IC50 [1] | IC50 [2] | IC50 [3] | inhibition [4]
1 | O=C(Cc1ccc2c(c1)OCO2)NC(Cc1ccccc1)C(=O)N1CCN(C2=Nc3ccccc3Sc3ccccc32)CC1 (configuration not stated) | 52 µM | 35 µM | 24 µM | –
2 | Cc1ccc(Br)cc1C(=O)NC(Cc1ccccc1)C(=O)N1CCN(C2=Nc3ccccc3Sc3ccccc32)CC1 (configuration not stated) | 49 µM | 27 µM | 16 µM | –
3 | Cc1ccc(C(=O)NC(Cc2ccccc2)C(=O)N2CCN(C3=Nc4ccccc4Sc4ccccc43)CC2)c(C)c1 (configuration not stated) | 37 µM | 35 µM | 40 µM | –
4 | O=C(NC(Cc1ccccc1)C(=O)N1CCN(C2=Nc3ccccc3Sc3ccccc32)CC1)c1ccoc1 (configuration not stated) | 37 µM | 17 µM | 14 µM | 51%
5 | O=C(NC(Cc1ccccc1)C(=O)N1CCN(C2=Nc3ccccc3Sc3ccccc32)CC1)c1ccc(OC(F)F)cc1 (configuration not stated) | 39 µM | 12 µM | 10 µM | 71%
6 | N#Cc1ccc(C(=O)NC(Cc2ccccc2)C(=O)N2CCN(C3=Nc4ccccc4Sc4ccccc43)CC2)cc1 (configuration not stated) | 61 µM | 24 µM | 29 µM | –
7 | Cc1ccc(C(=O)NC(Cc2ccccc2)C(=O)N2CCN(C3=Nc4ccccc4Sc4ccccc43)CC2)cc1I (configuration not stated) | 59 µM | 36 µM | 45 µM | –
8 | O=C(NC(Cc1ccccc1)C(=O)N1CCN(C2=Nc3ccccc3Sc3ccccc32)CC1)c1ccc(I)cc1 (configuration not stated) | 55 µM | 26 µM | 28 µM | –
9 | CC(C)(C(=O)NC(Cc1ccccc1)C(=O)N1CCN(C2=Nc3ccccc3Sc3ccccc32)CC1)c1ccc(C(=O)C2CC2)cc1 (configuration not stated) | 34 µM | 14 µM | 17 µM | 44%
10 | O=C(NC(Cc1ccccc1)C(=O)N1CCN(C2=Nc3ccccc3Sc3ccccc32)CC1)c1cnccn1 (configuration not stated) | 38 µM | 16 µM | 15 µM | 62%
11 | CCc1ccc(C(=O)NC(Cc2ccccc2)C(=O)N2CCN(C3=Nc4ccccc4Sc4ccccc43)CC2)cc1 (configuration not stated) | 44 µM | 21 µM | 25 µM | –
12 | CS(=O)(=O)c1ccc(CC(=O)NC(Cc2ccccc2)C(=O)N2CCN(C3=Nc4ccccc4Sc4ccccc43)CC2)cc1 (configuration not stated) | 56 µM | 28 µM | 32 µM | –
13 | CCN(CC)CCNC(=O)c1c(C)[nH]c(/C=C2\C(=O)Nc3ccc(F)cc32)c1C [SUNITINIB] | 32 µM | 14 µM | 8 µM | –
14 | CCOC(=O)CCCC(=O)NC(Cc1ccccc1)C(=O)N1CCN(C2=Nc3ccccc3Sc3ccccc32)CC1 (configuration not stated) | 48 µM | 20 µM | 36 µM | –
15 | COC(=O)CCCC(=O)NC(Cc1ccccc1)C(=O)N1CCN(C2=Nc3ccccc3Sc3ccccc32)CC1 (configuration not stated) | 64 µM | 19 µM | 28 µM | –
16 | O=C(CCc1cccc(Cl)c1)NC(Cc1ccccc1)C(=O)N1CCN(C2=Nc3ccccc3Sc3ccccc32)CC1 (configuration not stated) | 59 µM | 27 µM | 16 µM | –
17 | CC(=O)CCCC(=O)NC(Cc1ccccc1)C(=O)N1CCN(C2=Nc3ccccc3Sc3ccccc32)CC1 (configuration not stated) | 52 µM | 32 µM | 33 µM | –
18 | Cc1ccc(C(=O)NC(Cc2ccccc2)C(=O)N2CCN(C3=Nc4ccccc4Sc4ccccc43)CC2)cn1 (configuration not stated) | 54 µM | 39 µM | 34 µM | –
19 | Cc1ccc(C)c(C(=O)NC(Cc2ccccc2)C(=O)N2CCN(C3=Nc4ccccc4Sc4ccccc43)CC2)c1 (configuration not stated) | 34 µM | 16 µM | 12 µM | 54%
